In experiment [1] the target is cloned human P2Y1 receptors (Homo sapiens (Human), UniProt P47900). The experiment can be described thus: Binding Assay B: Scintillation Proximity Assay (SPA) for P2Y1 binding. On the procedure: Binding Assay B—Scintillation Proximity Assay (SPA) for P2Y1 Binding
A SPA membrane binding assay was used to identify inhibitors of [^33P] […] Binding reactions were performed in 384-well OptiPlates (PerkinElmer Life Sciences, Cat #6007299) in a volume of 50 μL containing ˜15 fmol of P2Y1 receptor (1.7 μg of total protein), 0.3 nM [^33P] […] Reactions were allowed to proceed to completion at room temperature for 1 hour followed by centrifugation of the plate for 5 min. About 40 μL of the aqueous solution was aspirated. Plates were sealed and the [^33P]
On the technique in general: Scintillation proximity formats need no separation of bound from free tracer.

Experiment [2] relates to human platelet rich plasma (PRP). The experiment can be described thus: ADP induced platelet aggregation assay. The class given is cell-based. The following applies: 5 min, read-out: PA IC50 (μM) @ 10 μM ADP. On the procedure:
ADP Induced Platelet Aggregation Assay
The ability of P2Y1 antagonists covered in the present invention to inhibit platelet aggregation induced by 10 μM ADP was tested using human platelet rich plasma (PRP) as described in Platelet Protocols: Research and Clinical Laboratory Procedures (White, M. M. et al., Academic Press (1999)). Human blood was collected in 30 μM (final concentration in blood) argatroban (GSK) as the anticoagulant at a ratio of 1 ml per 9 ml of blood. The PRP was isolated by centrifugation at 170 g for 12 minutes. The platelet poor plasma (PPP) was used as the blank for optical aggregometry. Compounds of the present invention in DMSO solution was preincubated with 250 μl PRP at 37° C. for 1 minute with stirring speed of 1000 rpm. Aggregation was initiated by addition of 2.5 μl of 1 mM ADP (Chrono-log, Havertown, Pa.) for a final ADP concentration of 10 uM. Platelet aggregation was monitored using Optical Aggregometer (Chrono-log, Havertown, Pa.) and the area under the curve (AUC) at 5 minute was measured. IC50 was calculated using vehicle control as 0% inhibition.
The platelet aggregation assay measures the in vitro antiplatelet activity of a compound in platelet rich plasma. The assay is sensitive to plasma protein binding, and is believed to be a better predictor of actual in vivo activity.

Setting [3] is: SPA, 0.3 nM [33P] 2MeS-ADP, Cheng-Prusoff, read-out: P2Y1 Ki (nM) using binding assay B.

Read-outs that look alike come from different tables or passages of the source.

Sequence of cloned human P2Y1 receptors (P47900 whole entry): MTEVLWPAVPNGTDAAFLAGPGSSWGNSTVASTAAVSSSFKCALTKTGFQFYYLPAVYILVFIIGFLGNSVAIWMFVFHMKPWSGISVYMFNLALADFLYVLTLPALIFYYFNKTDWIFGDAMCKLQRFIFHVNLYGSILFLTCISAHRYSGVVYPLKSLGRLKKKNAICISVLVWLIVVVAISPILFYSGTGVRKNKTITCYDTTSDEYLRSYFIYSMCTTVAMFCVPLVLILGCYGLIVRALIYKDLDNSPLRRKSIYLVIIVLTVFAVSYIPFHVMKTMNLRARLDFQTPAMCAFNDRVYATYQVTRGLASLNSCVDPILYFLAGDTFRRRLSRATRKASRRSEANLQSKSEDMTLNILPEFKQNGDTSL

Broadly, the Ki is a measure of affinity in units of concentration, obtained from inhibition or displacement. As a reminder, the IC50 is the concentration that gives 50% inhibition. `CC(C)(C)CN1CCC2(CC1)CN(c1ccccc1Nc1nnc(-c3ccc(C(F)(F)F)cn3)s1)c1c(O)ccc(Cl)c12` [Example 8, 4-Chloro-1′-neopentyl-1-(2-(5-(5-(trifluoromethyl)pyridin-2-yl)-1,3,4-thiadiazol-2-ylamino)phenyl)spiro[indoline-3,4′-piperidin]-7-ol] came in with a Ki in experiment [1] of 7 nM. Moreover, in experiment [2], the IC50 is 1.5 µM.
In turn, `COC(=O)c1nnc(Nc2ccccc2N2CC3(CCN(CC(C)(C)C)CC3)c3c(Cl)ccc(O)c32)s1` [Example 17, methyl 5-((2-(4-chloro-7-hydroxy-1′-neopentylspiro[indoline-3,4′-piperidin]-1-yl)phenyl)-amino)-1,3,4-thiadiazole-2-carboxylate] came in with a Ki in experiment [1] of 48 nM. For the same molecule, the concentration for half-maximal inhibition (IC50) in experiment [2] turned out to be 7.2 µM.
Taken in the same sequence, the figures for `CC(C)(C)CN1CCC2(CC1)CN(c1ccccc1Nc1nnc(-c3ccccc3)s1)c1c(O)ccc(C(F)(F)F)c12` [Example 1, 1′-Neopentyl-1-(2-(5-phenyl-1,3,4-thiadiazol-2-ylamino)phenyl)-4-(trifluoromethyl)spiro[indoline-3,4′-piperidin]-7-ol] were 10 nM and 1 µM.
The molecule `CC(C)(C)CN1CCC2(CC1)CN(c1ccccc1Nc1nnc(-c3ccc(OC(F)(F)F)cc3)s1)c1c(O)c(F)cc(Cl)c12` [Example 32, 4-chloro-6-fluoro-1′-neopentyl-1-(2-((5-(4-(trifluoromethoxy)-phenyl)-1,3,4-thiadiazol-2-yl)amino)phenyl)spiro[indoline-3,4′-piperidin]-7-ol] showed a Ki in experiment [1] of 69 nM. In experiment [2], the IC50 was 15.6 µM.
In the case of `CC(C)(C)CN1CCC2(CC1)CN(c1ccccc1Nc1cc(-c3ccccc3)on1)c1c(O)ccc(Cl)c12` [Example 38, 4-Chloro-1′-neopentyl-1-(2-(5-phenylisoxazol-3-ylamino)phenyl)spiro[indoline-3,4′-piperidin]-7-ol], the Ki in experiment [1] (setting [3]) was found to be 66 nM. Besides, the half-maximal inhibitory concentration (IC50) in experiment [2] worked out at 9 µM.
Take `CC(C)(C)CN1CCC2(CC1)CN(c1ccccc1Nc1nnc(-c3ccccc3Cl)s1)c1c(O)ccc(Cl)c12` [Example 19, 4-chloro-1-(2-((5-(2-chloro-phenyl)-1,3,4-thiadiazol-2-yl)amino)phenyl)-1′-neopentylspiro[indoline-3,4′-piperidin]-7-ol]: the Ki in experiment [1] (setting [3]) amounted to 28 nM. The IC50 in experiment [2] was 10.7 µM.
With `Cc1cccc(-c2nnc(Nc3ccccc3N3CC4(CCN(CC(C)(C)C)CC4)c4c(Cl)ccc(O)c43)s2)c1` [Example 22, 4-chloro-1′-neopentyl-1-(2-((5-(m-tolyl)-1,3,4-thiadiazol-2-yl)amino)phenyl)spiro[indoline-3,4′-piperidin]-7-ol], the inhibition constant (Ki) in experiment [1] was determined as 22 nM. Besides, the IC50 in experiment [2] amounted to 4 µM.
The matching figures for `CC(C)(C)CN1CCC2(CC1)CN(c1ccccc1Nc1nnc(-c3ccc(Cl)cc3)s1)c1c(O)ccc(F)c12` [Example 31, 1-(2-((5-(4-chlorophenyl)-1,3,4-thiadiazol-2-yl)amino)phenyl)-4-fluoro-1′-neopentylspiro-[indoline-3,4′-piperidin]-7-ol]: 6 nM and 4.2 µM.
The matching figures for `Cn1nc(C(C)(C)C)cc1-c1nnc(Nc2ccccc2N2CC3(CCN(CC(C)(C)C)CC3)c3c(Cl)ccc(O)c32)s1` [Example 18, 1-(2-((5-(3-(tert-butyl)-1-methyl-1H-pyrazol-5-yl)-1,3,4-thiadiazol-2-yl)amino)phenyl)-4-chloro-1′-neopentylspiro[indoline-3,4′-piperidin]-7-ol]: 33 nM and 1.8 µM.
Consider `CCOC(=O)c1sc(Nc2ccccc2N2CC3(CCN(CC(C)(C)C)CC3)c3c(Cl)ccc(O)c32)nc1C(F)(F)F` [Example 40, Ethyl 2-(2-(4-chloro-7-hydroxy-1′-neopentylspiro[indoline-3,4′-piperidine]-1-yl)phenylamino)-4-(trifluoromethyl)thiazole-5-carboxylate], for which the Ki in experiment [1] worked out at 19 nM. Also, in experiment [2], the IC50 amounted to 1 µM.
Regarding `CC(C)(C)CN1CCC2(CC1)CN(c1ccccc1Nc1nnc(-c3ccc(C(F)(F)F)cc3)s1)c1c(O)ccc(C(F)(F)F)c12` [Example 3, 1′-Neopentyl-4-(trifluoromethyl)-1-(2-(5-(4-(trifluoromethyl)phenyl)-1,3,4-thiadiazol-2-ylamino)phenyl)spiro[indoline-3,4′-piperidin]-7-ol], in experiment [1] (setting [3]), the Ki came to 16 nM. Besides, in experiment [2], the IC50 is 0.5 µM.
Take `COC(=O)c1ccc(O)c2c1C1(CCN(CC(C)(C)C)CC1)CN2c1ccccc1Nc1nnc(-c2ccc(C(F)(F)F)cc2)s1` [Example 43, Methyl 7-hydroxy-1′-neopentyl-1-(2-(5-(4-(trifluoromethyl)phenyl)-1,3,4-thiadiazol-2-ylamino)phenyl)spiro[indoline-3,4′-piperidine]-4-carboxylate]: the affinity in experiment [1] corresponds to a Ki of 8 nM. In experiment [2], the IC50 was found to be 3.1 µM.
As for `CC(C)CN1CCc2nc(Nc3ccccc3N3CC4(CCN(CC(C)(C)C)CC4)c4c(Cl)ccc(O)c43)sc2C1` [Example 41, 4-Chloro-1-(2-(5-isobutyl-4,5,6,7-tetrahydrothiazolo[5,4-c]pyridin-2-ylamino)phenyl)-1′-neopentylspiro[indoline-3,4′-piperidin]-7-ol], in experiment [1], the Ki amounted to 21 nM. Also, the IC50 in experiment [2] was 20.3 µM.
The matching figures for `CC(C)(C)CN1CCC2(CC1)CN(c1ccccc1Nc1nnc(-c3cccc(F)c3)s1)c1c(O)ccc(C(F)(F)F)c12` [Example 5, 1-(2-(5-(3-Fluorophenyl)-1,3,4-thiadiazol-2-ylamino)phenyl)-1′-neopentyl-4-(trifluoromethyl)spiro[indoline-3,4′-piperidin]-7-ol]: 12 nM and 1.6 µM.
On to `CC(C)(C)CN1CCC2(CC1)CN(c1ccccc1Nc1nnc(-c3cc(Cl)cc(Cl)c3)s1)c1c(O)ccc(Cl)c12` [Example 23, 4-chloro-1-(2-((5-(3,5-dichloro-phenyl)-1,3,4-thiadiazol-2-yl)amino)phenyl)-1′-neopentylspiro[indoline-3,4′-piperidin]-7-ol], for which the Ki in experiment [1] came to 19 nM. In experiment [2], the IC50 was 3.4 µM.
For `CC(C)(C)CN1CCC2(CC1)CN(c1ccccc1Nc1nnc(-c3ccc(OC(F)(F)F)cc3)s1)c1c(O)cc(F)c(F)c12` [Example 34, 4,5-difluoro-1′-neopentyl-1-(2-((5-(4-(trifluoromethoxy)-phenyl)-1,3,4-thiadiazol-2-yl)amino)phenyl)spiro[indoline-3,4′-piperidin]-7-ol], the Ki in experiment [1] turned out to be 37 nM. Moreover, in experiment [2], the IC50 came out at 9.9 µM.
Molecule `CC(C)(C)CN1CCC2(CC1)CN(c1ccccc1Nc1nnc(-c3cnc4ccccc4n3)s1)c1c(O)ccc(Cl)c12` [Example 16, 4-chloro-1′-neopentyl-1-(2-((5-(quinoxalin-2-yl)-1,3,4-thiadiazol-2-yl)amino)phenyl)spiro[indoline-3,4′-piperidin]-7-ol] gave a Ki in experiment [1] of 66 nM. Besides, in experiment [2], the IC50 was determined as 17.7 µM.
As to `CC(C)(C)CN1CCC2(CC1)CN(c1ccccc1Nc1nnc(-c3ccc(F)cc3)s1)c1c(O)ccc(C(F)(F)F)c12` [Example 4, 1-(2-(5-(4-Fluorophenyl)-1,3,4-thiadiazol-2-ylamino)phenyl)-1′-neopentyl-4-(trifluoromethyl)spiro[indoline-3,4′-piperidin]-7-ol], the Ki in experiment [1] turned out to be 15 nM. In addition, the IC50 in experiment [2] is 2.2 µM.
As for `CC(C)(C)CN1CCC2(CC1)CN(c1ccccc1Nc1nnc(-c3ccc(Cl)c(Cl)c3)s1)c1c(O)ccc(Cl)c12` [Example 25, 4-chloro-1-(2-((5-(3,4-dichloro-phenyl)-1,3,4-thiadiazol-2-yl)amino)phenyl)-1′-neopentylspiro[indoline-3,4′-piperidin]-7-ol], the affinity in experiment [1] corresponds to a Ki of 19 nM. Further, in experiment [2], the IC50 is 3.7 µM.
In experiment [1], `CC(C)(C)CN1CCC2(CC1)CN(c1ccccc1Nc1nnc(-c3cc(F)ccc3Cl)s1)c1c(O)ccc(Cl)c12` [Example 24, 4-chloro-1-(2-((5-(2-chloro-5-fluorophenyl)-1,3,4-thiadiazol-2-yl)amino)phenyl)-1′-neopentylspiro[indoline-3,4′-piperidin]-7-ol] displayed an inhibition constant Ki of 28 nM. Also, in experiment [2], the IC50 turned out to be 4.5 µM.
Regarding `COC(=O)c1ccc(O)c2c1C1(CCN(CC(C)(C)C)CC1)CN2c1ccccc1Nc1nnc(-c2ccc(C(C)(C)C)cc2)s1` [Example 44, Methyl 1-(2-(5-(4-tert-butylphenyl)-1,3,4-thiadiazol-2-ylamino)phenyl)-7-hydroxy-1′-neopentylspiro[indoline-3,4′-piperidine]-4-carboxylate], in experiment [1] (setting [3]), the Ki turned out to be 8 nM. Further, the IC50 in experiment [2] came to 0.8 µM.
Turning to `CC(C)(C)CN1CCC2(CC1)CN(c1ccccc1Nc1nnc(-c3cccc(C(F)(F)F)c3)s1)c1c(O)ccc(Cl)c12` [Example 27, 4-chloro-1′-neopentyl-1-(2-((5-(3-(trifluoromethyl)phenyl)-1,3,4-thiadiazol-2-yl)amino)-phenyl)spiro[indoline-3,4′-piperidin]-7-ol], in experiment [1], the affinity corresponds to a Ki of 24 nM. In addition, in experiment [2], the IC50 stood at 3.2 µM.
